# From PMC2639639, “Identification of Three Classes of Heteroaromatic Compounds with Activity against Intracellular Trypanosoma cruzi by Chemical Library Screening” (PLoS Neglected Tropical Diseases, 2009)
# “Also recorded” adds a separate entry of the source. Read-outs that look alike come from different tables or passages of the source.
# Columns and labels:
# Leishmania = tested on: Leishmania; design: method as in PMID 15891135; conditions: read-out: IC50 (Leishmania positive control); cited from earlier work
# [1] = tested on: T. cruzi (Tulahuen strain) expressing β-galactosidase; experiment: T. cruzi growth inhibition assay (β-gal activity, infection of NIH/3T3 cells); format: cell-based, Trypanosoma cruzi; conditions: Trypanosoma cruzi, TULAHUEN, NIH3T3, 96 h, 4 days
# Experimental: NIH/3T3 cells and parasites were harvested, washed once and resuspended in DMEM supplemented with 2% FBS and Pen-Strep-Glut. […] Different numbers of NIH/3T3 cells were seeded in 96-well plates. After 3 h, compounds were added at the indicated concentrations and mixed by pipetting. BZN tablets (Rochagan, Roche) dissolved in DMSO and 4 µM Amphotericin B solution (Sigma-Aldrich) were used as positive controls. Different numbers of T. cruzi parasites were added in a final volume of 200 µl/well. After 4 days, 50 µl of PBS containing 0.5% of the detergent NP40 and 100 µM Chlorophenol Red-β-D-galactoside (CPRG) (Fluka) were added. Plates were incubated at 37°C for 4 h and absorbance was read at 590 nm using a Tecan Spectra Mini plate reader.
# To calculate the Z′ factor, we used the formula described by Zhang et al.: Z′ = 1−[(3σc++3σc−) / |μc+−μc−|] where σc+ = standard deviation (SD) of positive control, σc− = SD of negative control, μc+ = mean of positive control, μc− = mean of negative control. Subsequently, the best ratio was used for all growth inhibition assays (50.000 cells and parasites, multiplicity of infection (MOI) 1∶1).
# To determine IC50 values, β-gal activity (Abs590) was plotted against compound concentration for each compound. The IC50 was determined as the concentration at which the activity (absorbance) was half that in the absence of compound. Mean IC50 values are the average of independent experiments performed in triplicate on three different days.
# T. cruzi = conditions: cited from earlier work
# [2] = tested on: Free trypomastigotes (β-gal T. cruzi); experiment: T. cruzi lysis assay; format: cell-based; conditions: Trypanosoma cruzi; lysis assay, 100,000 parasites, 24 h
# Experimental: Trypomastigotes were rinsed once and plated in 96-well plates at 100,000/well with the compounds in a final volume of 200 µl of DMEM without phenol red supplemented with 2% FBS, Pen-Strep-Glut and 100 µM CPRG. Plates were incubated for 24 h at 37°C and absorbance was read at 590 nm.
# [3] = tested on: intracellularly growing T. cruzi amastigotes; experiment: Development assay with immunofluorescence (intracellular amastigotes, Tulahuen β-gal strain); format: cell-based, Trypanosoma cruzi; conditions: for Morphology of intracellularly growing T. cruzi / Number of parasites per infected cell (intracellular replication): added after 2 h infection; for Morphology of intracellularly growing T. cruzi: fixed after 2 or 3 days, PCH1 100 nM, NT1 400 nM, CX1 90 nM; for Number of parasites per infected cell (intracellular replication): 2 days
# Experimental: (§1) Fifty thousand NIH/3T3 cells were seeded on sterile glass coverslips in 12-well plates and allowed to adhere overnight. Five million parasites were added (MOI 100∶1) and allowed to infect for 2 h in DMEM+2% FBS and Pen-Strep-Glut. Parasites were rinsed out three times with PBS. Infected cells were further incubated and fixed for 15 min with 4% paraformaldehyde at the times indicated.
# (§2) Fixed cells on coverslips were rinsed with PBS, permeabilized for 15 min in PBS with 0.1% Triton X-100 (Sigma-Aldrich). After blocking for 20 min in PBS with 10% goat serum, 1% bovine serum albumin, 100 mM glycine and 0.05% sodium azide, cells were incubated for 1 h at room temperature with a polyclonal rabbit anti-T. cruzi (gift from Dr B. Burleigh, Harvard School of Public Health, Boston, MA) at 1∶2000 dilution. After rinsing, an Alexa Fluor® 488 goat anti-rabbit IgG secondary antibody (Molecular Probes, Invitrogen) was added for 1 h at a 1∶800 dilution. DNA was stained with DAPI and coverslips were mounted on Mowiol. To determine the number of parasites per infected cell, between 200 and 300 infected cells per coverslip were scored in triplicate samples using an inverted Olympus IX70 microscope with a 60× oil objective. Data are presented as mean±standard deviation. Images were taken with the same microscope.
# L. amazonensis = experiment: Leishmania growth inhibition assay in bone marrow-derived macrophages (L. amazonensis); format: cell-based; conditions: 3 days; for Reduction in parasite burden, L. amazonensis: 2 µM, added 2 h post-infection of macrophages; for IC50: Leishmania amazonensis, Macrophage, 72 h, macrophages, read-out: estimated IC50 against intracellular L. amazonensis
# Experimental: (§3) Adherent bone marrow-derived macrophages were harvested in cold DMEM+0.5 mM EDTA and seeded into an 8-well Lab-Tek II chambered coverglass (Nalge Nunc International, Naperville, IL) at a concentration of 50,000 cells/chamber 24 h before being used for infections.
# (§4) L. major and L. amazonensis parasites were opsonized for 30 min by incubation in DMEM containing 4% BALB/c serum and then allowed to invade macrophages in 200 µl DMEM supplemented with 10% FBS and Pen-Strep-Glut, at a MOI of 3 parasites per macrophage for 2 h at 33°C (5% CO2, 95% air humidity),[17]. Thereafter, non-phagocytosed parasites were washed off, and the cultures were further incubated in 300 µl of medium in the presence or the absence of drugs at the indicated concentration for 3 days for L. amazonensis and 5 days for L. major. Medium was changed and drugs were added again at the same concentration on day 2 post-infection. Intracellular parasites were assessed after staining with DAPI (3 µM) by fluorescence microscopy. The total number of amastigotes/500 macrophages was counted in each well. Kruskal-Wallis test was used to analyze the data, followed by a Dunn's post-comparison test.
# T. cruzi Y strain = experiment: Development assay with immunofluorescence (Y strain); format: cell-based, Trypanosoma cruzi; conditions: added after 2 h infection, 2 days
# Experimental: as §1, §2
# L. major = experiment: Leishmania growth inhibition assay in bone marrow-derived macrophages (L. major); format: cell-based; conditions: 5 days; for Reduction in parasite burden, L. major: 2 µM, added 2 h post-infection of macrophages; for IC50: Leishmania major, Macrophage, 120 h, macrophages, read-out: estimated IC50 against intracellular L. major
# Experimental: as §3, §4
# NIH/3T3 cells = experiment: Cytotoxicity assay (Alamar Blue) on NIH/3T3 cells; format: cell-based; conditions: 4 days
# Experimental: (§5) Cells (NIH/3T3 or HepG2) were washed and plated at a density of 50,000 cells/well of 96-well plates in 200 µl and allowed to adhere for 3 h. Twenty-four hour assays were done in DMEM without phenol red supplemented with 10% FBS and Pen-Strep-Glut, while 4-day assays were done in the same medium containing 2% FBS. Drugs were added and mixed. After 1 or 4 days, 20 µl of Alamar Blue (Biosource, Invitrogen) was added. Plates were incubated for 4 h (HepG2) or 6 h (NIH/3T3) at 37°C and fluorescence was read using a Labsystems Fluoroskan II plate reader (excitation: 544 nm, emission: 590 nm) .
# (§6) To determine TC50 values, fluorescence was plotted against inhibitor concentration. TC50 was determined as the concentration at which cytotoxicity (fluorescence) was half that in the absence of inhibitor.
# mammalian cells = experiment: Cytotoxicity on mammalian cells (cell type not given); format: cell-based; conditions: type of mammalian cells and duration not specified at the place
# Experimental: as §5, §6
# HepG2 cells = experiment: Cytotoxicity assay (Alamar Blue) on HepG2 cells; format: cell-based, human
# Experimental: as §5, §6
# [4] = β-gal T. cruzi Tulahuen, 50.000 NIH/3T3 cells and parasites (MOI 1:1), read-out: IC50 Intracellular growth
smiles,measurement,setting,value
C[C@@H]1[C@H](O)[C@@H](C)/C=C/C=C/C=C/C=C/C=C/C=C/C=C/[C@H](O[C@@H]2O[C@H](C)[C@@H](O)[C@H](N)[C@@H]2O)C[C@@H]2O[C@](O)(C[C@@H](O)C[C@@H](O)[C@H](O)CC[C@@H](O)C[C@@H](O)CC(=O)O[C@H]1C)C[C@H](O)[C@H]2C(=O)O [Amphotericin B],IC50,Leishmania,100 nM
"O=C(Cn1ccnc1[N+](=O)[O-])NCc1ccccc1 [BZN, benznidazole, reference compound]",IC50,"[1]; β-gal T. cruzi Tulahuen in NIH/3T3 cells, read-out: IC50 T. cruzi growth inhibition",1150 nM
same,IC50,T. cruzi; read-out: IC50 against T. cruzi (reported),1500 nM
"Cc1cc(OCCCCCCn2ccnc2)cc(C)c1Cl [CX1, 1-[6-(4-chloro-3,5-dimethylphenoxy)hexyl]-1H-imidazole]",IC50,[2],13500 ± 1000 nM
same,"Phenotype of intracellular T. cruzi, compounds added 2 days after infection",[3],induced parasite lysis and host cell apoptosis in concentrations as low as 90 nM
same,Morphology of intracellularly growing T. cruzi,[3],displayed pycnotic nuclei (star) and debris of parasites protein and DNA throughout the cytoplasm
same,"Reduction in parasite burden, L. amazonensis",L. amazonensis,70%
same,IC50,L. amazonensis,~500 nM
same,Effect on intracellular T. cruzi Y strain,T. cruzi Y strain,induced parasite lysis with morphological changes; also recorded: dose effect on the Y strain of T. cruzi was similar to the β-gal-expressing Tulahuen strain
same,"Reduction in parasite burden, L. major",L. major,~70%
same,IC50,L. major,~500 nM
same,TC50 NIH/3T3 cells at 4 days,NIH/3T3 cells,16000 ± 6000 nM
same,Toxicity (TC50) versus anti-trypanosomal activity (IC50),mammalian cells,over 500 fold
same,TC50 HepG2 cells at 24 h,HepG2 cells,57000 ± 8000 nM
same,TC50 HepG2 cells at 4 days,HepG2 cells,12000 ± 4000 nM
same,IC50,[1]; [4],23 ± 7 nM
"OC(Cn1cncn1)(Cn1cncn1)c1ccc(F)cc1F [Fluconazole, fluconazole]",IC50,T. cruzi; read-out: IC50 against T. cruzi in vitro,8000 nM
"O=C(Cn1cnc([N+](=O)[O-])n1)Nc1cc(Oc2cccc(C(F)(F)F)c2)cc([N+](=O)[O-])c1 [NT1, 2-(3-nitro-1H-1,2,4-triazol-1-yl)-N-{3-nitro-5-[3-(trifluoromethyl)phenoxy]phenyl}acetamide]",IC50,[2],6800 ± 900 nM
same,"Phenotype of intracellular T. cruzi, compounds added 2 days after infection",[3],had a trypanostatic effect
same,Number of parasites per infected cell (intracellular replication),[3],induced a growth arrest of intracellular T. cruzi
same,Morphology of intracellularly growing T. cruzi,[3],inhibited replication of parasites without altering their overall morphology
same,"Reduction in parasite burden, L. amazonensis",L. amazonensis,50%
same,IC50,L. amazonensis,~500 nM
same,Effect on intracellular T. cruzi Y strain,T. cruzi Y strain,"inhibit intracellular replication of T. cruzi Y strain; also recorded: displayed activity on the Y strain, but at higher concentrations"
same,"Reduction in parasite burden, L. major",L. major,~80%
same,IC50,L. major,~500 nM
same,TC50 NIH/3T3 cells at 4 days,NIH/3T3 cells,14000 ± 6000 nM
same,TC50 HepG2 cells at 24 h,HepG2 cells,30000 ± 10000 nM
same,TC50 HepG2 cells at 4 days,HepG2 cells,7600 ± 300 nM
same,IC50,[1]; [4],190 ± 40 nM
"O=C(NN=Cc1ccc(-c2cccc(Cl)c2Cl)o1)c1ccccn1 [PCH1, N′-{[5-(2,3-dichlorophenyl)-2-furyl]methylene}-2-pyridinecarbohydrazide]",IC50,[2],240000 ± 60000 nM
same,"Phenotype of intracellular T. cruzi, compounds added 2 days after infection",[3],induced major defects in cell division at the IC100 and parasite lysis at higher doses
same,Number of parasites per infected cell (intracellular replication),[3],induced a growth arrest of intracellular T. cruzi
same,Morphology of intracellularly growing T. cruzi,[3],larger amastigotes containing multiple disorganized nuclei and kinetoplasts were observed
same,"Reduction in parasite burden, L. amazonensis",L. amazonensis,70%
same,IC50,L. amazonensis,~100 nM
same,Effect on intracellular T. cruzi Y strain,T. cruzi Y strain,inhibit intracellular replication of T. cruzi Y strain
same,"Reduction in parasite burden, L. major",L. major,about 50%
same,IC50,L. major,~2000 nM
same,TC50 NIH/3T3 cells at 4 days,NIH/3T3 cells,>300000 nM
same,TC50 HepG2 cells at 24 h,HepG2 cells,>300000 nM
same,TC50 HepG2 cells at 4 days,HepG2 cells,66000 ± 7000 nM
same,IC50,[1]; [4],54 ± 10 nM
